Results as given in publication PMC13355314, “Charged molecular glue discovery enabled by targeted degron display” (Nature Chemical Biology, 2026).
Several values for one entry are separate records, joined by “and”; a condition that tells them apart may be missing. Equal entries are not always repeated. Entries after “also recorded” stand apart in the source; their conditions may differ.

Experiments:
[1] = system: ternary complex of *BRD4BD1, ZZ1-SO2H and YPEL5-WDR26; assay: Competitive FP disrupting the ternary complex; format: binding, human
From the text: The four-parameter [inhibitor] versus response model was applied to estimate the IC50.

Microsome stability, MLM = format: in vitro ADME; settings: mouse, liver microsomes; for half-life: read-out: MLM Stability (T1/2 min)
Microsome stability, HLM = format: in vitro ADME; settings: human, liver microsomes; for half-life: read-out: HLM Stability (T1/2 min)
BRD2BD1 = molecular target: T1, BRD2BD1 (Homo sapiens, UniProt P25440); assay: Cellular fluorescent reporter assay, BRD2 BD1; format: cell-based
T1 construct: Cellular fluorescent reporter assay testing ZZ1-induced degradation of BRD2 and BRD3 BD1 bromodomains; expressed in transfected cells
T1 sequence (P25440 74-180 limits assumed): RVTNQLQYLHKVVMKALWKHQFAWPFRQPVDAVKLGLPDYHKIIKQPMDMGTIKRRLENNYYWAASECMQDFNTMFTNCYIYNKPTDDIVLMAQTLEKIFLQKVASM
Protocol: (§1) Then, 50 µl of cell suspension was seeded in 384-well plates and immediately treated with DMSO or drug for 16 h. The indicated drugs were dispensed with a D300 digital dispenser (Tecan Genomics). The fluorescence signal was quantified by flow cytometry (FACSymphony flow cytometer, BD Biosciences). Using FlowJo (flow cytometry analysis software, BD Biosciences), the geometric mean of the eGFP and mCherry fluorescent signal for round and mCherry-positive cells was calculated. The ratio of eGFP to mCherry was normalized to the average of ten DMSO-treated controls.

GSH chemical stability = format: physicochemical; settings: for half-life: GSH chemical stability; for remaining at 5 min / remaining at […] / remaining at 0.5 h / remaining at 1 h / remaining at 2 h: GSH; for remaining at […]: 15 min; for remaining at 0.5 h: 30 min; for remaining at 1 h: 60 min; for remaining at 2 h: 120 min
From the text: Afatinib Time Peak Area %Remaining Ln T1/2
(Ctrl) (min) Ratio (%remaining) (min)
(min) Ratio (%remaining) (min)

Plasma stability, mouse = format: in vitro ADME; settings: read-out: Plasma Stability (T1/2 min)
BRD3BD1 = molecular target: T2, BRD3BD1 (Homo sapiens, UniProt Q15059); assay: Cellular fluorescent reporter assay, BRD3 BD1; format: cell-based
T2 construct: Cellular fluorescent reporter assay testing ZZ1-induced degradation of BRD2 and BRD3 BD1 bromodomains; expressed in transfected cells
T2 sequence (Q15059 34-140 limits assumed): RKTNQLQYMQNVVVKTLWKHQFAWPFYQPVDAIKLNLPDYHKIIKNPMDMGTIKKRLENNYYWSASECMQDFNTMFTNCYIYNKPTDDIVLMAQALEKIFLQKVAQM
Protocol: as §1

BRD4BD1 = molecular target: T3, BRD4BD1 (Homo sapiens, UniProt O60885); assay: cell-based; format: cell-based; settings: K562, 16 h
T3 construct: host or cells: K562-Cas9
Protocol: Reporter cell lines were generated as described previously.
as §1

Plasma stability, human = format: in vitro ADME; settings: read-out: Plasma Stability (T1/2 min)
BRD4 = molecular target: T4, BRD4 (Homo sapiens, UniProt O60885); assay: HiBiT–BRD4 assay (endogenous BRD4 protein levels); format: cell-based
T4 construct: Endogenous BRD4 protein levels were evaluated using the Nano-Glo HiBiT lytic detection system; endogenous in cells; host or cells: Jurkat (HiBiT knock-in; some series in YPEL5-/- cells re-expressing WT or mutant YPEL5-FLAG)
Protocol: Introduction of a HiBiT coding sequence into the endogenous BRD4 locus in Jurkat cells was achieved using CRISPR–Cas9 genome editing. Alt-R CRISPR RNA (crRNA) and trans-activating crRNA (tracrRNA) (Integrated DNA Technologies) were resuspended in nuclease-free duplex buffer (Integrated DNA Technologies) at a concentration of 200 µM each. Equal volumes of crRNA and tracrRNA were mixed (final concentration of 100 µM each) and heated for 5 min at 95 °C. After heating, the complex was gradually cooled to room temperature. The oligo complex was then incubated at room temperature for 20 min with the Alt-R Cas9 nuclease V3 (Integrated DNA Technologies) to form the ribonucleoprotein (RNP) complex. The double-stranded DNA homology-directed repair (HDR) template (HiBiT–BRD4 with extensions, shown below), the RNP complex and an electroporation enhancer (Integrated DNA Technologies) were then electroporated into Jurkat cells using an Amaxa 4D-Nucleofector (Lonza). Electroporated cells were transferred to medium with HRD enhancer (Integrated DNA Technologies). Single cells were subsequently isolated by fluorescence-activated cell sorting and HiBiT expression from individual clones was detected with the Nano-Glo HiBiT lytic detection system (Promega). Sequences for the crRNA and HDR donor are provided below.
Endogenous BRD4 protein levels were evaluated using the Nano-Glo HiBiT lytic detection system (Promega). In brief, 1.5 × 10^4 HiBiT–BRD4 Jurkat cells were seeded into 384-well plates and incubated with the indicated concentrations of compounds. After 5 h, the plates were subjected to a Nano-Glo HiBiT lytic detection system as described in the manufacturer’s manual. The HiBiT–BRD4 assays were conducted in biological triplicates.

[2] = system: FAM–BRD4BD1 + YPEL5–WDR26; assay: Real-time FP monitoring the rate of ternary complex formation; format: binding, human; settings: in vitro, DTT-containing buffer
Protocol: Here, the concentration of DTT in the binding buffer used for preparing the tracer–E3 ligase mixture varied from 0.1 to 5 mM.

BRD2, BRD3, BRD4 = assay: Western blotting of BET protein degradation; format: cell-based, human; settings: immunoblotting (and proteome-wide MS)
Protocol: Total cells lysates were prepared in 2× sample loading buffer (that is, 250 mM Tris-HCl pH 6.8, 4% SDS, 10% glycerol, 0.006% bromophenol blue, 2% β-mercaptoethanol, 50 mM sodium fluoride and 5 mM sodium orthovanadate). The samples with cell lysates were boiled for 5–8 min at 95 °C. The protein concentrations of the cell lysates were quantified using the BCA method and a BCA protein assay kit (Thermo Fisher Scientific). […] After washing the membranes with PBS for 30 min, the membranes were detected on a Li-COR Odyssey CLx system.

BRD4BD1+BD2 = molecular target: T5, BRD4BD1+BD2 (Homo sapiens, UniProt O60885); assay: BRD4 reporter stability analysis, BRD4BD1+BD2–eGFP (K562-Cas9, flow cytometry); format: cell-based; settings: K562, 16 h
T5 construct: host or cells: K562-Cas9
Protocol: (§2) The Cilantro 2 reporter vector (PGK.BsmBICloneSite-10aaFlexibleLinker-eGFP.IRES.mCherry. cppt.EF1α.PuroR; Addgene, 74450) was used for flow-based degradation assays. […] Reporter cell lines were generated as described previously.
as §1

BRD4BD2 = molecular target: T6, BRD4BD2 (Homo sapiens, UniProt O60885); assay: BRD4 reporter stability analysis, BRD4BD2–eGFP (K562-Cas9, flow cytometry); format: cell-based; settings: for DC50: BRD4BD2 reporter, K562, 16 h; for Dmax: K562
T6 construct: host or cells: K562-Cas9
Protocol: as §2, §1

*BRD4BD1 / YPEL5-CTLH E3 = molecular target: T7, *BRD4BD1 / YPEL5-CTLH E3 (Homo sapiens, UniProt O60885+P62699); assay: In vitro ubiquitylation assay (YPEL5-CTLH E3, UBE2H); format: biochemical; settings: YPEL5-CTLH E3-dependent
T7 construct: fluorescent BRD4 bromodomain substrates, either in isolation (BRD4BD1 and BRD4BD2) or in tandem (BRD4BD1+BD2); GST (N, cleaved yes); made in house; host or cells: CTLH E3 and UBA1: High Five insect cells; BRD4BD1, UBE2H, ubiquitin: E. coli BL21 (DE3) RIL
Protocol: All ubiquitylation assays were performed at room temperature in the final reaction buffer containing 25 mM HEPES pH 7.5, 150 mM NaCl, 0.25 mM DTT, 5 mM ATP and 10 mM MgCl2. Samples at indicated time points were quenched by mixing an aliquot of the total reaction mixture with a reducing Laemmli buffer and subjected to SDS–PAGE. Substrate ubiquitylation was visualized by a fluorescence scan of SDS–PAGE gels using the Amersham Typhoon Imager 600 (GE Healthcare).
The mixture was incubated at room temperature for 1 h and supplemented with 0.2 μM E1 UBA1 and 20 μM ubiquitin to initiate the reaction.

[3] = molecular target: T8, FAM–BRD4BD1 + YPEL5–WDR26 module (Homo sapiens, UniProt O60885+P62699); assay: FP assay quantifying ternary complex formation; settings: *BRD4BD1 binding to YPEL5–WDR26 upon degrader titration
T8 construct: fluorescent BRD4 bromodomain substrates, either in isolation (BRD4BD1 and BRD4BD2) or in tandem (BRD4BD1+BD2); GST (N, cleaved yes); made in house; host or cells: BRD4BD1: E. coli BL21 (DE3) RIL; YPEL5–WDR26ΔCTLH: Trichoplusia ni High Five insect cells
From the text: The potency of the degraders was expressed as the EC50 estimated by nonlinear regression using a four-parameter [agonist] versus response model.

YPEL5 = molecular target: T9, YPEL5 (Homo sapiens, UniProt P62699); assay: Octet BLI, binary affinity of degrader for YPEL5 (no BRD4BD1); format: binding; settings: absence of BRD4BD1
T9 construct: made in house; host or cells: Trichoplusia ni High Five insect cells
T9 sequence (P62699 2-121): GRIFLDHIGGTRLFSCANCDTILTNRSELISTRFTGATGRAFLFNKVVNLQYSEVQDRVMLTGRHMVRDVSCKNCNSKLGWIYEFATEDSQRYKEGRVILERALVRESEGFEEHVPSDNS
Protocol: To quantify interactions between the degrader-bound neosubstrates and the CTLH E3 neosubstrate receptor module, we determined the KD using Octet BLI.
For each measurement, one of the loaded sensors was dipped in the reference solution containing 0 or 5 μM degrader in the BLI binding buffer (in the absence of the analyte protein). The reference response values were subtracted from the responses elicited by all the neosubstrate-containing solutions before data analysis. All BLI experiments were carried out at 20 °C using the eight-channel Octet R8 system (Sartorius). Concentrated proteins and compounds were diluted in the BLI binding buffer composed of 25 mM HEPES pH 7.5, 150 mM NaCl, 1 mM DTT and 0.05% Tween-20.
The raw data were processed with Octet analysis software (Sartorius) by applying a global fitting with linked Rmax values (assuming a 1:1 binding model). […] KD was estimated by nonlinear regression using the one-site binding model.

Cc1sc2c(c1C)C(c1ccc(Cl)cc1)=N[C@@H](CC(=O)OC(C)(C)C)c1nnc(C)n1-2 [JQ1, reference compound]
disruption of the ternary complex [1]: could disrupt the ternary complex

CCN(CC)CCNC(=O)c1c(C)[nH]c(/C=C2\C(=O)Nc3ccc(F)cc32)c1C [Sunitinib, reference compound]
microsomal CLint (Microsome stability, MLM): 38 µL/min/mg
half-life (Microsome stability, MLM): 36.5 min
microsomal CLint (Microsome stability, HLM): 32 µL/min/mg
half-life (Microsome stability, HLM): 43.5 min

Cc1sc2c(c1C)C(c1ccc(NC(=O)c3ccc(S(=O)(=O)F)c(Cl)c3)cc1)=N[C@@H](CC(=O)OC(C)(C)C)c1nnc(C)n1-2 [ZZ1]
DC50 (BRD2BD1): 70.1 ± 3.6 nM
Dmax (BRD2BD1): 63%
half-life (GSH chemical stability; buffer): < 5 min
remaining at 5 min (GSH chemical stability; buffer): 26.7%
remaining at […] (GSH chemical stability; buffer): 9.36%
remaining at 0.5 h (GSH chemical stability; buffer): 3.21%
remaining at 1 h (GSH chemical stability; buffer): 3.12%
remaining at 2 h (GSH chemical stability; buffer): 2.27%
half-life (Plasma stability, mouse): 57 min
DC50 (BRD3BD1): 33.5 ± 5.4 nM
Dmax (BRD3BD1): 73%
DC50 (BRD4BD1; BRD4BD1 reporter): 126 nM and 128 nM
Dmax (BRD4BD1; BRD4BD1 reporter): 88%
Dmax (BRD4BD1; K562, BRD4BD1 reporter): 69%
microsomal CLint (Microsome stability, MLM): 254 µL/min/mg
half-life (Microsome stability, MLM): 5.5 min
half-life (Plasma stability, human): 45 min
Dmax (BRD4; Jurkat): 82%
DC50 (BRD4; Jurkat cells pretreated with MG132 for 1 h, then ZZ1 5 h): > 20000 nM
DC50 (BRD4; Jurkat cells pretreated with MLN-4924 for 1 h, then ZZ1 5 h): 1400 ± 130 nM
DC50 (BRD4; Jurkat cells, 5 h): 502 nM and 489 nM
DC50 (BRD4; Jurkat, 5 h, cells pretreated with 100 μM GSH for 2 h): 152 ± 19 nM
DC50 (BRD4; Jurkat, 5 h, no GSH pre-treatment): 237 ± 20 nM
DC50 (BRD4; WT YPEL5-expressing Jurkat cells, 5 h): 168 ± 15 nM
DC50 (BRD4; YPEL5 L62A-expressing Jurkat cells, 5 h): 841 ± 137 nM
DC50 (BRD4; YPEL5 R41A-expressing Jurkat cells, 5 h): 719 ± 102 nM
DC50 (BRD4; YPEL5 T36A-expressing Jurkat cells, 5 h): 971 ± 176 nM
rate of ternary complex formation [2]: induced ternary complex formation slowly
BET protein degradation (BRD2, BRD3, BRD4): induced selective degradation of BET proteins (BRD3, BRD4 and, to a lesser extent, BRD2); also recorded: especially potent in the Ewing sarcoma TC-71 cell line
microsomal CLint (Microsome stability, HLM): 195 µL/min/mg
half-life (Microsome stability, HLM): 7.1 min
DC50 (BRD4BD1+BD2): 75 ± 16.4 nM
Dmax (BRD4BD1+BD2): 80%
DC50 (BRD4BD2): 532 ± 80.2 nM
Dmax (BRD4BD2): 40%

Cc1sc2c(c1C)C(c1ccc(NC(=O)c3cc(Cl)c(S(=O)(=O)F)c(Cl)c3)cc1)=N[C@@H](CC(=O)OC(C)(C)C)c1nnc(C)n1-2 [ZZ2]
DC50 (BRD2BD1): 46.4 ± 6.6 nM
Dmax (BRD2BD1): 76%
half-life (GSH chemical stability; buffer): < 5 min
remaining at 5 min (GSH chemical stability; buffer): 9.27%
remaining at […] (GSH chemical stability; buffer): 4.72%
remaining at 0.5 h (GSH chemical stability; buffer): 0%
remaining at 1 h (GSH chemical stability; buffer): 0%
remaining at 2 h (GSH chemical stability; buffer): 0%
half-life (Plasma stability, mouse): 7 min
DC50 (BRD3BD1): 21.1 ± 3.1 nM
Dmax (BRD3BD1): 82%
DC50 (BRD4BD1; BRD4BD1 reporter): 91 ± 8.8 nM
Dmax (BRD4BD1; K562, BRD4BD1 reporter): 81%
microsomal CLint (Microsome stability, MLM): 741 µL/min/mg
half-life (Microsome stability, MLM): 1.9 min
half-life (Plasma stability, human): 14 min
DC50 (BRD4; Jurkat cells, 5 h): 169 nM
rate of ternary complex formation [2]: much faster rate
microsomal CLint (Microsome stability, HLM): 670 µL/min/mg
half-life (Microsome stability, HLM): 2.1 min
DC50 (BRD4BD2): 198 ± 75.5 nM
Dmax (BRD4BD2): 31%

Cc1sc2c(c1C)C(c1ccc(NC(=O)c3ccc(S(=O)O)c(Cl)c3)cc1)=N[C@@H](CC(=O)OC(C)(C)C)c1nnc(C)n1-2 [ZZ1-SO2H]
BRD4BD1 ubiquitylation in vitro (*BRD4BD1 / YPEL5-CTLH E3): promoted robust BRD4BD1 ubiquitylation
activity in cellular assays (BRD4): inactive
EC50 [3]: 60 nM and ~60 nM and 74 nM
affinity between degrader and YPEL5 by BLI (YPEL5): did not observe measurable affinity

Cc1sc2c(c1C)C(c1ccc(NC(=O)c3ccc(S(=O)(=O)O)c(Cl)c3)cc1)=N[C@@H](CC(=O)OC(C)(C)C)c1nnc(C)n1-2 [ZZ1-SO3H]
BRD4BD1 ubiquitylation in vitro (*BRD4BD1 / YPEL5-CTLH E3): promoted robust BRD4BD1 ubiquitylation
activity in cellular assays (BRD4): inactive

Cc1sc2c(c1C)C(c1ccc(NC(=O)c3cc(Cl)c(S(=O)O)c(Cl)c3)cc1)=N[C@@H](CC(=O)OC(C)(C)C)c1nnc(C)n1-2 [ZZ2-SO2H, 4-((4-((S)-6-(2-(tert-butoxy)-2-oxoethyl)-2,3,9-trimethyl-6H-thieno[3,2-f][1,2,4]triazolo[4,3-a][1,4]diazepin-4-yl)phenyl)carbamoyl)-2,6-dichlorobenzenesulfinic acid]
BRD4BD1 ubiquitylation in vitro (*BRD4BD1 / YPEL5-CTLH E3): promotes more robust BRD4BD1 ubiquitylation
EC50 [3]: < 74 nM

CN(C)C/C=C/C(=O)Nc1cc2c(Nc3ccc(F)c(Cl)c3)ncnc2cc1O[C@H]1CCOC1 [Afatinib, reference compound]
half-life (GSH chemical stability; glutathione (GSH) solution): 25.2 min
remaining at 5 min (GSH chemical stability; glutathione (GSH) solution): 82.1%
remaining at […] (GSH chemical stability; glutathione (GSH) solution): 48.1%
remaining at 0.5 h (GSH chemical stability; glutathione (GSH) solution): 27.6%
remaining at 1 h (GSH chemical stability; glutathione (GSH) solution): 13.8%
remaining at 2 h (GSH chemical stability; glutathione (GSH) solution): 3.43%
